Drawing on publication PMC5564600 (Oncotarget, 2017), this text covers remaining activity for four compounds.

Like-named read-outs stand apart in the source and are kept apart here.

What all share (experiment): biochemical
Holding throughout (type): binding

Assay [1] addresses T1, panel of 442 kinases (Homo sapiens, UniProt P22455).
T1 construct: purchased Ambit Biosciences (scanMAXX KINOMEscan)
Conditions: FGFR4; for remaining activity at 1 µM: read-out: % of control at 1 µM.

Assay [2] concerns the target T2, panel of 442 kinases (Homo sapiens, UniProt P57058).
T2 construct: purchased Ambit Biosciences (scanMAXX KINOMEscan)
T2 sequence (P57058 1-714): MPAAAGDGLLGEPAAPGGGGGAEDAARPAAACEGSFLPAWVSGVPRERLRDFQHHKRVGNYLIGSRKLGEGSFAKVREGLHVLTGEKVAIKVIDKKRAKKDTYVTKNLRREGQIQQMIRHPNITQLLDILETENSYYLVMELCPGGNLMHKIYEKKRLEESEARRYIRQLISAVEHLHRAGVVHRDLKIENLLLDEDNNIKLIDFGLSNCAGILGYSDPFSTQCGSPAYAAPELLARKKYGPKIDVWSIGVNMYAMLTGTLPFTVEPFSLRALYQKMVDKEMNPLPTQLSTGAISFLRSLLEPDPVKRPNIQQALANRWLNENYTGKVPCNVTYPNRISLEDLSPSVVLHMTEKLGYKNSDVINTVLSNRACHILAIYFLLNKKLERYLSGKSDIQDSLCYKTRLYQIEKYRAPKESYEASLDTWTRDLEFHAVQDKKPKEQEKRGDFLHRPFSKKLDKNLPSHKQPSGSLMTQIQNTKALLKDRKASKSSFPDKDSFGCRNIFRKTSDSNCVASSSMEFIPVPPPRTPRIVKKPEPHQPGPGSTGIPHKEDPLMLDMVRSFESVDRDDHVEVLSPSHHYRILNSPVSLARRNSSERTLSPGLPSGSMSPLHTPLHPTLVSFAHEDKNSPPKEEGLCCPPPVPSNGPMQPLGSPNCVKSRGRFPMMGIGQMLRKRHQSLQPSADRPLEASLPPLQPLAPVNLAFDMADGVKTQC
Conditions: kinase HUNK; for remaining activity at 1 µM: read-out: % of control at 1 µM.

Assay [3] addresses T3, panel of 442 kinases (Homo sapiens, UniProt Q86UE8).
T3 construct: purchased Ambit Biosciences (scanMAXX KINOMEscan)
Conditions: kinase TLK2; for remaining activity at 1 µM: read-out: TLK2 (% of control at 1 µM).

The target in assay [4] is T4, panel of 442 kinases (Homo sapiens, UniProt P36888, D835H).
T4 construct: purchased Ambit Biosciences (scanMAXX KINOMEscan)
T4 sequence (P36888 27-993 D835H): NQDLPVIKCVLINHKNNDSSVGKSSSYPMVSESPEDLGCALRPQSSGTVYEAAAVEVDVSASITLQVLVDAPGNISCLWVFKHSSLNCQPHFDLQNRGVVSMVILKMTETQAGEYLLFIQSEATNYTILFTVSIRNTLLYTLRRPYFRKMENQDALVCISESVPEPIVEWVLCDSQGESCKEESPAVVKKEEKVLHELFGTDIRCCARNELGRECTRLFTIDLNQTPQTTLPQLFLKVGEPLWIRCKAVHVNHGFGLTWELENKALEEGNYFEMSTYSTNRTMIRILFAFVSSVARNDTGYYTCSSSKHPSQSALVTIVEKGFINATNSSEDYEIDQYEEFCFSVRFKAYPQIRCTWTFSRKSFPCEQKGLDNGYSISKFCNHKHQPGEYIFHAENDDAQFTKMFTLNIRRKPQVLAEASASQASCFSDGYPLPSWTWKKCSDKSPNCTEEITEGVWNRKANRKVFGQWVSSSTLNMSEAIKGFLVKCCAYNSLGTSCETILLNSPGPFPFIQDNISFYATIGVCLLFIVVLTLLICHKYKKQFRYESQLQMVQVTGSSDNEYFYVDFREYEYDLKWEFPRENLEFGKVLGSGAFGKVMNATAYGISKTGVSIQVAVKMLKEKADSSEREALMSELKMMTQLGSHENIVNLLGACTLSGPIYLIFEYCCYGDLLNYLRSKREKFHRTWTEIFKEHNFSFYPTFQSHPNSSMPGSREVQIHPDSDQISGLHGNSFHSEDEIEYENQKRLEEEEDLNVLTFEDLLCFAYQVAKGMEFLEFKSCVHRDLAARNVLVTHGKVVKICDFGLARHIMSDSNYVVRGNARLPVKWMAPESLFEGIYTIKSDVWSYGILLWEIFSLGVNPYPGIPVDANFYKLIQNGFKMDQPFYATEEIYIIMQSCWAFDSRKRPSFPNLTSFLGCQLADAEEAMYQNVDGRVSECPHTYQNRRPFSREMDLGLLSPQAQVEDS
Conditions: FLT3(D835H); for remaining activity at 1 µM: read-out: % of control at 1 µM.

For assay [5], the target named is T5, panel of 442 kinases (Homo sapiens, UniProt Q86UX6).
T5 construct: purchased Ambit Biosciences (scanMAXX KINOMEscan)
Conditions: kinase YANK3; for remaining activity at 1 µM: read-out: YANK3 (% of control at 1 µM).

For assay [6], the target named is T6, panel of 442 kinases (Homo sapiens, UniProt Q9NQU5).
T6 construct: purchased Ambit Biosciences (scanMAXX KINOMEscan)
Conditions: kinase PAK6; for remaining activity at 1 µM: read-out: % of control at 1 µM.

Assay [7] concerns the target T7, panel of 442 kinases (Homo sapiens, UniProt Q9P0L2).
T7 construct: purchased Ambit Biosciences (scanMAXX KINOMEscan)
Conditions: kinase MARK1; for remaining activity at 1 µM: read-out: % of control at 1 µM.

For assay [8], the target named is T8, panel of 442 kinases (Homo sapiens, UniProt Q9P1W9).
T8 construct: purchased Ambit Biosciences (scanMAXX KINOMEscan)
Conditions: kinase PIM2; for remaining activity at 1 µM: read-out: % of control at 1 µM.

The target of assay [9] is T9, panel of 442 kinases (Homo sapiens, UniProt P00519, F317I).
T9 construct: purchased Ambit Biosciences (scanMAXX KINOMEscan)
Conditions: for remaining activity at 1 µM: read-out: % of control at 1 µM; for remaining activity at 10 µM: read-out: % of control at 10 µM.

Assay [10] has as its target T10, panel of 442 kinases (Homo sapiens, UniProt Q9H3Y6).
T10 construct: purchased Ambit Biosciences (scanMAXX KINOMEscan)
The following applies: kinase SRMS; for remaining activity at 1 µM: read-out: SRMS (% of control at 1 µM).

The target of assay [11] is T11, panel of 442 kinases (Homo sapiens, UniProt P00519, E255K).
T11 construct: purchased Ambit Biosciences (scanMAXX KINOMEscan)
The following applies: ABL1(E255K)-phosphorylated; for remaining activity at 1 µM: read-out: % of control at 1 µM.

The target in assay [12] is T12, panel of 442 kinases (Homo sapiens, UniProt Q8N5S9).
T12 construct: purchased Ambit Biosciences (scanMAXX KINOMEscan)
The following applies: CAMKK1; for remaining activity at 1 µM: read-out: % of control at 1 µM.

Assay [13] has as its target T13, panel of 442 kinases (Homo sapiens, UniProt P08922).
T13 construct: purchased Ambit Biosciences (scanMAXX KINOMEscan)
The following applies: kinase ROS1; for remaining activity at 1 µM: read-out: ROS1 (% of control at 1 µM).

Where [14] appears, read: 10 µM, read-out: % of control at 10 µM.

T3 sequence (Q86UE8 whole entry): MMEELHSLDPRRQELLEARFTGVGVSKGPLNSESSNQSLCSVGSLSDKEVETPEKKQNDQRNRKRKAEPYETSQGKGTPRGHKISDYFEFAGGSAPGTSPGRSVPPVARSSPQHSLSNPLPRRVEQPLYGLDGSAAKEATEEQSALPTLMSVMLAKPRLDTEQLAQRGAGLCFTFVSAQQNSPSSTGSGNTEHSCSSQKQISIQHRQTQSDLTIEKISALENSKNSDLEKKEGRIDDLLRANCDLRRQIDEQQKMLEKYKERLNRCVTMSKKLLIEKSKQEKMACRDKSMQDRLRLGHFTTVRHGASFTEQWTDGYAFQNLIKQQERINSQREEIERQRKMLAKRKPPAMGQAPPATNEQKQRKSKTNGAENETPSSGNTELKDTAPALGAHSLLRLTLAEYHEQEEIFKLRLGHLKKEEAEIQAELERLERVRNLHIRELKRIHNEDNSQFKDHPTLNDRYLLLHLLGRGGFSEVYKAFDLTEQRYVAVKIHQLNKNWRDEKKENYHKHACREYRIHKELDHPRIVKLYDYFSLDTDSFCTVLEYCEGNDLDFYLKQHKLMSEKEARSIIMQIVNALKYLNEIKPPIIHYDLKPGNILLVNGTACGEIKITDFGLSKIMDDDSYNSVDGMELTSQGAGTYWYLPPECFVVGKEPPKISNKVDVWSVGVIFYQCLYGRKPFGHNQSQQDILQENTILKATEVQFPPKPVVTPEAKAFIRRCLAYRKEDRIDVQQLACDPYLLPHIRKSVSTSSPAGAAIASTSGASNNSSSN
T10 sequence (Q9H3Y6 whole entry): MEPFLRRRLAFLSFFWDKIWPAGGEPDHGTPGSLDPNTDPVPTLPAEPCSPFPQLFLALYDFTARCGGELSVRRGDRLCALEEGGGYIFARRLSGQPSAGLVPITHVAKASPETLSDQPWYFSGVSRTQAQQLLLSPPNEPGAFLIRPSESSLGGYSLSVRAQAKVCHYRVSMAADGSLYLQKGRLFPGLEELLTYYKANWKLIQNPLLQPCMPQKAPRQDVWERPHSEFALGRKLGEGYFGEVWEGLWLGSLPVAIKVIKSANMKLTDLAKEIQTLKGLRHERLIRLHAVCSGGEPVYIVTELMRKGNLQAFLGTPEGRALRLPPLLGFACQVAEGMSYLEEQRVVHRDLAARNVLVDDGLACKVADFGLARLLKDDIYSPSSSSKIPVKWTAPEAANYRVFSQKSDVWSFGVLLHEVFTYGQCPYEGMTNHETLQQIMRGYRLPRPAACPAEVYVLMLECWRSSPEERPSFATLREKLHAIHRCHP
T1 sequence (P22455 22-802): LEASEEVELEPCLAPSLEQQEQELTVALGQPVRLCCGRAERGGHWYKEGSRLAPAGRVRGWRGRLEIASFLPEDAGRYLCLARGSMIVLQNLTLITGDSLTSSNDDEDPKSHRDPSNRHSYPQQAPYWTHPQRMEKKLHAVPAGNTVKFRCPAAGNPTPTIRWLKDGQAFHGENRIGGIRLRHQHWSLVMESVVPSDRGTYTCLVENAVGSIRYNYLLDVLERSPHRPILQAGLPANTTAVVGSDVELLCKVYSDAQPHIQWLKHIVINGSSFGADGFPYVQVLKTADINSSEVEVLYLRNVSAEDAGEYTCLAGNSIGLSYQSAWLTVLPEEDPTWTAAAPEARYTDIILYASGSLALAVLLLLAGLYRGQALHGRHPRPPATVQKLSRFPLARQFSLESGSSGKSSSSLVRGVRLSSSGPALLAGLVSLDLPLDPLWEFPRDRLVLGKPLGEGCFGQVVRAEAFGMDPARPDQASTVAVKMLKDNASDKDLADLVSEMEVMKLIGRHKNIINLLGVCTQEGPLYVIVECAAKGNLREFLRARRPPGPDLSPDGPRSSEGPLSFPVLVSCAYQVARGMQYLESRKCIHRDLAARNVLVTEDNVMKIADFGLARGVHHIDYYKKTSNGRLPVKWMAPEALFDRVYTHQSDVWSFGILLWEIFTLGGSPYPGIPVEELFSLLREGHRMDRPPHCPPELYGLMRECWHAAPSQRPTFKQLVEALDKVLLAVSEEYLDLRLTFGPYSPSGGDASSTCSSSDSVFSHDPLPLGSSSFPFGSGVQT
T9 sequence (P00519 whole entry F317I): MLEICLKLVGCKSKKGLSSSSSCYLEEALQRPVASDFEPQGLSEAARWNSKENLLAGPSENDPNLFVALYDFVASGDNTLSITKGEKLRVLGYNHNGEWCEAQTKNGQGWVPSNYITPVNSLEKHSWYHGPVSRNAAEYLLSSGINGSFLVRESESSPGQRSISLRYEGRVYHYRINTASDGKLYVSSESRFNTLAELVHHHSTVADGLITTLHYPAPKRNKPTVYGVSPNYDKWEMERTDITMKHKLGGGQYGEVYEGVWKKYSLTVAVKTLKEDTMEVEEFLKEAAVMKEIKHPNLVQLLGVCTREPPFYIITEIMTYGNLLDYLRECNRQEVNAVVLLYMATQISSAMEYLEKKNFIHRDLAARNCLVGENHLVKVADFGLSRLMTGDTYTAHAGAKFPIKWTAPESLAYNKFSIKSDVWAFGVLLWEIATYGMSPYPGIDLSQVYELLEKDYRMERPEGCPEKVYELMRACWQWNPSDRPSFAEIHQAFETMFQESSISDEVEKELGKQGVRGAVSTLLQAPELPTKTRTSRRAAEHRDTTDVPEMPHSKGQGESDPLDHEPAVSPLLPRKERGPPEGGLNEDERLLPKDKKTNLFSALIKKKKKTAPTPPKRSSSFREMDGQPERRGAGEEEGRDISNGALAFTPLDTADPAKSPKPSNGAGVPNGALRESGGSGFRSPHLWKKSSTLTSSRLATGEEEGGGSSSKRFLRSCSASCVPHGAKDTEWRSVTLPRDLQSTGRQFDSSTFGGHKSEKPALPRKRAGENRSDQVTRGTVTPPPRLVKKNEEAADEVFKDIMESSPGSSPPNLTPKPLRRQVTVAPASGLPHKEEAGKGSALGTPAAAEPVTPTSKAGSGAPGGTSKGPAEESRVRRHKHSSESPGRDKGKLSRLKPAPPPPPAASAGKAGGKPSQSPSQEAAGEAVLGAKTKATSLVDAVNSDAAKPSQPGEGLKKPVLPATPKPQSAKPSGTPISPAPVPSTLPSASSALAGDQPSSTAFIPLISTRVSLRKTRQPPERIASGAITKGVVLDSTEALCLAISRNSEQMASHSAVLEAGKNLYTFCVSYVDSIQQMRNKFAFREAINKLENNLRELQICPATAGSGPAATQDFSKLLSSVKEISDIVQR
T7 sequence (Q9P0L2 whole entry): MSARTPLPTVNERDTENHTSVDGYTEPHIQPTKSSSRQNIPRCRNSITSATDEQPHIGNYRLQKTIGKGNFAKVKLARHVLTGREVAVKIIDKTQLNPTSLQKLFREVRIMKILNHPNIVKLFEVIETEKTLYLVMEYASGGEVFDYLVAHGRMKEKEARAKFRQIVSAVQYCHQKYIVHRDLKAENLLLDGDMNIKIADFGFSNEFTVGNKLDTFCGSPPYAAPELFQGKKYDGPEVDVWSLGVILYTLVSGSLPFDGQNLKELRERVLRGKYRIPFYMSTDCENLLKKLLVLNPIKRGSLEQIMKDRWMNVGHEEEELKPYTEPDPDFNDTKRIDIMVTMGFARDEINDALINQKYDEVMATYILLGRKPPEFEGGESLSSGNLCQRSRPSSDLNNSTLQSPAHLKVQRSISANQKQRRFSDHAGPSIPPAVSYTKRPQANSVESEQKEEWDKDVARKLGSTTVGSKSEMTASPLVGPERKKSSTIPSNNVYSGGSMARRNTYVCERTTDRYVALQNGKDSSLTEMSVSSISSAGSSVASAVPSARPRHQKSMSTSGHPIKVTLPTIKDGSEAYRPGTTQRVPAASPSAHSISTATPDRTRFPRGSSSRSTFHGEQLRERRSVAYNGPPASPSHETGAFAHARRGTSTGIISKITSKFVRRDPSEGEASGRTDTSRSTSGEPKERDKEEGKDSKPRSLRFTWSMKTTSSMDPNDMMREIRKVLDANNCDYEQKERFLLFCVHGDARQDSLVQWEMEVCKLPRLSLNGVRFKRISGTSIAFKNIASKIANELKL
T11 sequence (P00519 whole entry E255K): as the sequence (P00519 whole entry F317I) above, with E255K, I317F counted along it
T8 sequence (Q9P1W9 whole entry): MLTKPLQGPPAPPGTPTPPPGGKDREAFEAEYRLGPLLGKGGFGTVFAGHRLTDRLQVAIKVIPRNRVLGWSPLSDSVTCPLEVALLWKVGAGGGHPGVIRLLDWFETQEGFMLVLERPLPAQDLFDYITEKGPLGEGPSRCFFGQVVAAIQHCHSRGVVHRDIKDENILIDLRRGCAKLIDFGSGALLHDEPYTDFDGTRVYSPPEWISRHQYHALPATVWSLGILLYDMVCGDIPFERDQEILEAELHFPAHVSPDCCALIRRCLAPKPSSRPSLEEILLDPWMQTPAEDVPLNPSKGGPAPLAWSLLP
T6 sequence (Q9NQU5 whole entry): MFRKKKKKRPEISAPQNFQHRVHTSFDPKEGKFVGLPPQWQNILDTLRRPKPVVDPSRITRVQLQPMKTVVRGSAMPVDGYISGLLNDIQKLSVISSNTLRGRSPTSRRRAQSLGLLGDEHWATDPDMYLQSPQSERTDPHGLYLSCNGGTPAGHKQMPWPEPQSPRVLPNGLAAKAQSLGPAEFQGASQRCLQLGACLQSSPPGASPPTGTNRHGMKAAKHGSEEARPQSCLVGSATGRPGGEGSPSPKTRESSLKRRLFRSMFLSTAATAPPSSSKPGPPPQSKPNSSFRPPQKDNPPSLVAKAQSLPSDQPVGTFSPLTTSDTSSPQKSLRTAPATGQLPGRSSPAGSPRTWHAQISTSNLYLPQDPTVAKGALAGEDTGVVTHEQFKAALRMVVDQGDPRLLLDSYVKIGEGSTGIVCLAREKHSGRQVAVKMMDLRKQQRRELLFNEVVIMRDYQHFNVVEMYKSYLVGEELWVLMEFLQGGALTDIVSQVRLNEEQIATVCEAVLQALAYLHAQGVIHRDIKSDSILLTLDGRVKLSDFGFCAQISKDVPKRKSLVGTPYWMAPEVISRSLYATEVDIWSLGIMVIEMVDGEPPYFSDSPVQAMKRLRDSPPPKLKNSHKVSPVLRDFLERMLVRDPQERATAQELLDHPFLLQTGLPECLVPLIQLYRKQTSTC

As to `COc1ncc(-c2ccc3nccc(-c4ccnnc4)c3c2)cc1NS(=O)(=O)c1ccc(F)cc1F` [Omipalisib], the remaining activity at 1 µM on panel of 442 kinases [1] was 100%; at panel of 442 kinases [2] it was 74%; on panel of 442 kinases [3], 100%; at panel of 442 kinases [4], 100%; on panel of 442 kinases [5], 100%; at panel of 442 kinases [6], 100%. For the same compound, the remaining activity at 1 µM at panel of 442 kinases [7] came out at 100%; at panel of 442 kinases [8], 98%; at panel of 442 kinases [9] (ABL1(F317I)-nonphosphorylated), 100%; at panel of 442 kinases [9] (ABL1(F317I)-phosphorylated) it was 100%; on panel of 442 kinases [10], 90%; on panel of 442 kinases [11] it was 95%. The remaining activity at 1 µM at panel of 442 kinases [12] and on panel of 442 kinases [13] was 100% throughout.
`Cn1c(=O)n(-c2ccc(C(C)(C)C#N)cc2)c2c3cc(-c4cnc5ccccc5c4)ccc3ncc21` [Dactolisib, 2-methyl-2-[4-(3-methyl-2-oxo-8-quinolin-3-yl-2,3-dihydroimidazo[4,5-c]quinolin-1-yl)-phenyl] propionitrile]: the remaining activity at 1 µM at panel of 442 kinases [1] is 89%; at panel of 442 kinases [2], 93%; at panel of 442 kinases [3], 93%; on panel of 442 kinases [4], 26%; at panel of 442 kinases [5] it was 88%; at panel of 442 kinases [6], 92%. The remaining activity at 1 µM worked out at 82% at panel of 442 kinases [7]; 100% on panel of 442 kinases [8]; 100% at panel of 442 kinases [9] (ABL1(F317I)-nonphosphorylated); 100% on panel of 442 kinases [9] (ABL1(F317I)-phosphorylated); 88% on panel of 442 kinases [10]; 79% at panel of 442 kinases [11]. Also, the remaining activity at 1 µM amounted to 79% at panel of 442 kinases [12] and 100% at panel of 442 kinases [13].
For the compound `Nc1cc(C(F)(F)F)c(-c2cc(N3CCOCC3)nc(N3CCOCC3)n2)cn1` [Buparlisib], the remaining activity at 1 µM came out at 100% on panel of 442 kinases [1]; 100% on panel of 442 kinases [2]; 100% on panel of 442 kinases [3]; 89% at panel of 442 kinases [4]; 94% at panel of 442 kinases [5]; 96% at panel of 442 kinases [6]. In addition, the remaining activity at 1 µM is 100% on panel of 442 kinases [7]; 91% at panel of 442 kinases [8]; 100% at panel of 442 kinases [9] (ABL1(F317I)-nonphosphorylated); 78% on panel of 442 kinases [9] (ABL1(F317I)-phosphorylated); 100% on panel of 442 kinases [10]; 74% on panel of 442 kinases [11]. The figures for the remaining activity at 1 µM on panel of 442 kinases [12] and at panel of 442 kinases [13] were 100% and 84%, respectively. The remaining activity at 10 µM on panel of 442 kinases [1] (setting [14]) worked out at 100%; on panel of 442 kinases [2] (setting [14]), 100%; on panel of 442 kinases [3] (10 µM, read-out: TLK2 (% of control at 10 µM)) it was 100%; on panel of 442 kinases [4] (setting [14]), 76%; at panel of 442 kinases [5] (10 µM, read-out: YANK3 (% of control at 10 µM)), 100%; at panel of 442 kinases [6] (setting [14]), 100%. In addition, the remaining activity at 10 µM stood at 100% at panel of 442 kinases [7] (setting [14]); 100% on panel of 442 kinases [8] (setting [14]); 100% on panel of 442 kinases [9] (ABL1(F317I)-nonphosphorylated); 100% at panel of 442 kinases [9] (ABL1(F317I)-phosphorylated); 100% at panel of 442 kinases [10] (10 µM, read-out: SRMS (% of control at 10 µM)); 96% at panel of 442 kinases [11] (setting [14]). Further, the remaining activity at 10 µM came to 100% on panel of 442 kinases [12] (setting [14]) and 79% at panel of 442 kinases [13] (10 µM, read-out: ROS1 (% of control at 10 µM)).
For `FC(F)c1nc2ccccc2n1-c1nc(N2CCOCC2)nc(N2CCOCC2)n1` [ZSTK474, 2-(difluoromethyl)-1-[4,6-di(4-morpholinyl)-1,3,5-triazin-2-yl]-1H-benzimidazole], the remaining activity at 1 µM on panel of 442 kinases [1] was 100%; on panel of 442 kinases [2], 100%; on panel of 442 kinases [3], 100%; on panel of 442 kinases [4], 100%; on panel of 442 kinases [5], 73%; at panel of 442 kinases [6] it was 100%. Moreover, the remaining activity at 1 µM on panel of 442 kinases [7] stood at 98%; on panel of 442 kinases [8], 100%; on panel of 442 kinases [9] (ABL1(F317I)-nonphosphorylated), 100%; on panel of 442 kinases [9] (ABL1(F317I)-phosphorylated), 88%; on panel of 442 kinases [10], 80%; on panel of 442 kinases [11] it was 100%. In addition, the remaining activity at 1 µM at panel of 442 kinases [12] and at panel of 442 kinases [13] was 100% throughout.
